Assay results reported in patent US7947827B2 (priority 2006, dated 2011).
Read-outs that look alike come from different tables or passages of the source.

Columns and labels:
[1] = tested on: NQO activity in cultured murine hepatoma cells; conditions: cited from earlier work
[2] = mouse, in vivo, po, 2500 mg/kg; cited from earlier work
[3] = tested on: bone marrow cells of mice; conditions: mouse, in vivo; cited from earlier work
[4] = in vivo, po; cited from earlier work
[5] = rhesus monkey, in vivo, iv; cited from earlier work
[6] = rhesus monkey, in vivo, iv
[7] = rat, in vivo; cited from earlier work
[8] = design: species or system sheep; conditions: in vivo
[9] = design: species or system humans; conditions: in vivo
[10] = in vivo; cited from earlier work
[11] = rat, in vivo; cited from earlier work; remark: listed apart in the source
[12] = rat, in vivo; cited from earlier work; remark: listed apart in the source
[13] = rat, in vivo; cited from earlier work; remark: listed apart in the source
[14] = guinea pig, in vivo; cited from earlier work
[15] = mouse, in vivo, cited from earlier work
[16] = rat, in vivo; cited from earlier work; remark: listed apart in the source
[17] = pig, in vivo, cited from earlier work
[18] = dog, in vivo, cited from earlier work
[19] = in vivo, ip; cited from earlier work
[20] = rabbit, in vivo, cited from earlier work
[21] = rat, in vivo, cited from earlier work
[22] = tested on: azoxymethane- and IQ-induced aberrant crypt foci; conditions: in vivo; cited from earlier work

**Q.** Which results are given for sodium copper chlorophyllin?
**A.** concentration required to double NQO activity (CD) [1]: 30 µM; potency as NQO inducer relative to Chl [1]: ~10 times; ill effects [2]: without any ill effects; reducing clastogenicity from cesium chloride, mercuric chloride and cobalt chloride [3]: demonstrated efficacy

**Q.** With `COc1cc2c(c3oc(=O)c4c(c13)CCC4=O)[C@@H]1C=CO[C@@H]1O2` [AFB1, aflatoxin B1] as the compound, how does the “total dose excreted in first 48 hours” value [4] read?
**A.** approximately 90%

**Q.** And the “dose eliminated in urine as chloroform extractable, first 24 hours” value [5]?
**A.** ~10%

**Q.** What about the “dose eliminated in urine as unbound, first 24 hours” value [5] of the same compound?
**A.** ~30%

**Q.** What about the “dose eliminated in urine within first 24 hours” value [5] of the same compound?
**A.** 40%

**Q.** And the “dose remaining in the liver at 100 hours” value [5]?
**A.** 13.6%

**Q.** And the “dose remaining in the plasma at 100 hours” value [5]?
**A.** 5.8%

**Q.** And the “fecal excretion of dose, 24 to 48 hours” value [5]?
**A.** 20%

**Q.** What about the “fecal excretion of dose, 48 to 72 hours” value [5] of the same compound?
**A.** ~6%

**Q.** What about the “fecal excretion of dose, 72 to 100 hours” value [5] of the same compound?
**A.** ~3%

**Q.** And the “fecal excretion of dose, first 24 hours” value [5]?
**A.** ~4%

**Q.** What about the “total excreta after 100 hours, of administered dose” value [5] of the same compound?
**A.** 73.1%

**Q.** And the “terminal half-life (t1/2β) from all routes of excretion” value [6]?
**A.** approximately 24 hours

**Q.** What about the “absorption rate constant (ka)” value [7] of the same compound?
**A.** 5.84 ± 0.05 h⁻¹

**Q.** And the t1/2 [8]?
**A.** approximately 24 hours

**Q.** What about the “terminal half-life, conservative estimate” value [9] of the same compound?
**A.** less than 24 hours

**Q.** What about the “time to complete absorption” value [9] of the same compound?
**A.** 0.5 to 1.0 h

**Q.** With “potassium sodium chlorophyllin copper complex [sodium potassium chlorophyllin]” as the compound, how does the scurvy [10] read?
**A.** no evidence of scurvy

**Q.** And the “copper storage in liver, kidney or spleen” value [11]?
**A.** No copper storage occurred

**Q.** And the effects in offspring [12]?
**A.** locomotory difficulties and skeletal muscle defects

**Q.** And the adverse effects [13]?
**A.** without any adverse effects except weight loss related to food refusal

**Q.** And the “ill effects or pathological change” value [14]?
**A.** without ill effects or pathological change

**Q.** And the LD50 ([15]; po)?
**A.** 7000 mg/kg

**Q.** What about the “Cu toxicity or deposition in liver, kidney or spleen” value [16] of the same compound?
**A.** no evidence of Cu toxicity or deposition

**Q.** What about the “gross or histopathological changes” value [16] of the same compound?
**A.** No gross or histopathological changes

**Q.** For chlorin e4 ethyl ester, which “concentration required to double NQO activity (CD)” value [1] is on record?
**A.** 20 µM

**Q.** And the “potency as NQO inducer relative to Chl” value [1]?
**A.** 50 times

**Q.** For Sodium chlorophyllin copper complex, which LD50 ([17]; im) is on record?
**A.** > 20 mg/kg

**Q.** What about the LD50 ([17]; iv) of the same compound?
**A.** > 10 mg/kg

**Q.** What about the LD50 ([18]; im) of the same compound?
**A.** > 50 mg/kg

**Q.** And the LD50 ([18]; ip)?
**A.** > 200 mg/kg

**Q.** And the LD50 ([18]; iv)?
**A.** > 200 mg/kg

**Q.** What about the LD50 [19] of the same compound?
**A.** > 60 mg/kg

**Q.** What about the LD50 ([20]; im) of the same compound?
**A.** > 60 mg/kg

**Q.** What about the LD50 ([20]; ip) of the same compound?
**A.** > 500 mg/kg

**Q.** What about the LD50 ([20]; iv) of the same compound?
**A.** > 200 mg/kg

**Q.** What about the LD50 ([15]; im) of the same compound?
**A.** > 500 mg/kg

**Q.** And the LD50 ([15]; ip)?
**A.** > 1000 mg/kg

**Q.** What about the LD50 ([15]; iv) of the same compound?
**A.** > 400 mg/kg

**Q.** And the LD50 ([21]; im)?
**A.** > 250 mg/kg

**Q.** And the LD50 ([21]; ip)?
**A.** > 1000 mg/kg

**Q.** What about the LD50 ([21]; iv) of the same compound?
**A.** > 250 mg/kg

**Q.** Which “azoxymethane- and IQ-induced aberrant crypt foci” value [22] does the source give for chlorophyll here?
**A.** inhibited
